Patent publication US20250250308A1, “METHODS AND COMPOSITIONS WITH ANTIFUNGAL ACTIVITY” (priority 2022, published 2025)
Several values for one entry are separate records, joined by “and”; a condition that tells them apart may be missing. Equal values may be shown once.

How the values were obtained:
C. albicans [1] = experiment: Intravenous (disseminated candidiasis) infection model, survival; format: in vivo, mouse; conditions: C. albicans pre-incubated with 100 nM for two hours prior to IV injection
Text: The wild-type 12-mer is protective in a systemic mouse model of C. albicans infection. Systemic bloodstream infections by C. albicans are the most life-threatening to patients. Mortality rates from disseminated candidiasis exceed 40% and new treatments are in dire need. Since EntV impairs hyphal morphogenesis and biofilm formation rather than killing C. albicans (Graham et al., 2017), it was unclear if EntV and EntV derivatives would be protective in a systemic infection model. To increase the chances of observing an effect, C. albicans were pre-incubated with 100 nM of EntV or the 12-mer for two hours prior to intravenous (IV) injection of 1×10^5 CFU. […] The median survival of animals injected with C. albicans alone was 7.5 days and all animals had expired by 11 days.
Intravenous infection model. The disseminated candidiasis model was performed as described (Miramon and Lorenz, 2016; Williams and Lorenz, 2020). C. albicans SC5314 was grown overnight in YPD at 30° C., then diluted to a very low concentration and grown in a second overnight. The late-log phase culture was collected by centrifugation, washed in PBS, and diluted to 5×10^6 cells/ml in PBS containing vehicle (0.01% DMSO) or 100 nM EntV or the 12-mer peptide and incubated for 2 hours at room temperature. […] Animals were monitored at least twice daily for 21 days for signs of moribundity.

[2] = tested on: Lactobacillus sakei ATCC 15521; experiment: Lactobacillus MIC assay (growth in liquid culture); format: cell-based
Procedure: FIG. 8: EntV fragments have no inhibitory activity against Lactobacillus sakei. L. sakei was cultured in Lactobacilli MRS broth overnight and diluted 1/10 into fresh medium to which EntV and EntV fragments were added at various concentrations. After 24 hours of growth at 30° C., the OD625 readings were taken.
Lactobacillus MIC Assay. For this assay, Lactobacillus sakei ATCC 15521 (Torriani et al., 1996) was used following the methodology as described with a few modifications (Chang et al., 2011). Briefly L. sakei was grown in Lactobacilli MRS broth (Difco, Detroit, MI, USA) for 18 h at 30° C. without agitation (Malheiros et al., 2015). Following adjustment to a concentration of 1×10^6 cells/ml, cells were diluted 1:10 into fresh MRS medium containing the indicated concentrations of EntV fragments. After 24 hours of growth at 30° C. without agitation, OD625 readings were taken using a BioTek Cytation5 plate reader. Readings of blanks (containing fresh MRS medium) were subtracted from sample wells. Three technical replicates were averaged, and the experiment was repeated three times.

C. albicans [3] = experiment: Killing of C. elegans by C. albicans (survival of infected nematodes); format: in vivo; conditions: for Median survival: C. albicans infected C. elegans exposed to 1 nM peptide, one value per trial
Procedure: The α7 helix is sufficient to protect C. elegans and inhibit surface adhesion. Based on this structural characterization, fragments of EntV were examined to identify those structural moieties that retained antifungal activity. Synthetic peptides were generated of each of the four alpha helices (plus two flanking amino acids) from the active C-terminus of EntV—α4, α5, α6 and α7 (FIG. 1A) as well as an α4-α6 construct. The peptides were tested for their ability to protect C. elegans against C. albicans infection as established in previous work (Cruz et al., 2013; Graham et al., 2017).
Killing of C. elegans by C. albicans. The methodology used for the C. elegans infection assays was performed, with a few modifications, as described ((Breger et al., 2007; Cruz et al., 2013; Graham et al., 2017; Peleg et al., 2008)). Briefly, C. elegans glp-4(bn2); sek-1(km-4) (Breger et al., 2007) nematodes were propagated and maintained on E. coli strain OP50(Brenner, 1974) that was seeded onto nematode growth medium (NGM) agar using standard techniques (Hope, 1999). To synchronize the animals, L1 stage worms on non-starved plates were washed off, filtered through a 10 μm filter (pluriSelect, pluriStrainer 10 μm), harvested by centrifugation, transferred to OP50 seeded plates, and grown to the L4 stage. To prepare the infection plates, C. albicans strain […] (Gillum et al., 1984) was grown in YPD broth for 24 h at 37° C. with agitation. 500 μl of the culture was plated onto BHI solid medium containing gentamycin (10 μg/ml) and grown for 24 h at 37° C. The synchronized, L4 C. elegans were washed off the OP50 plates in 2 ml sterile M9 buffer and washed once, centrifuging at 750×g for 30 seconds to collect animals. Animals were infected by placing them on the SC5314 lawn for 4 h at 25° C. Following this exposure, they were washed off the plate and washed four times with 2 ml of sterile M9. The nematodes were then pipetted (˜30 per well with 2 wells per condition for a total of ˜60 worms assayed) into six-well plates with 2 ml of liquid medium (20% BHI broth and 80% M9) containing the indicated concentrations of test compounds. Plates were incubated at 25° C., and worm death was scored daily. Kaplan-Meier survival curves were generated and analyzed as described in the quantification and statistical analysis section.

Row | Molecule | Animals alive at end of experiment (day 22) (C. albicans [1]) | Antibacterial (bacteriocin) activity against L. sakei ([2]; various concentrations, 24 hours) | Protection of C. elegans from C. albicans infection (survival) (C. albicans [3]; 1 nM peptide) | Median survival (C. albicans [3]) | Lowest concentration abrogating growth of L. sakei ([2]; liquid culture, 24 hours at 30° C., OD625)
1 | VAGQLALWAVQC [12aa] | about half the animals were still alive | no longer had bacteriocin activity | as effective in protecting against C. albicans infection in the worm model and inhibiting surface adhesion as full-length EntV | 11 days and 10 days and 12 days and 10.5 days and 9.5 days | –
2 | EntV: 68 amino acid active C-terminal form of the E. faecalis bacteriocin EntV (SEQ ID NO: 14) (protein, listed as Enterococcus faecalis) LGSCVANKIKDEFFAMISISAIVKAAQKKAWKELAVTVLRFAKANGLKTNAIIVAGQLALWAVQCGLS | about half the animals were still alive | – | – | 11 days and 10.5 days and 13 days and 12 days and 10 days and 9.5 days and 9 days | ≤ 10 nM
